Experimental findings from paper PMC4977651, “Molecular features of biguanides required for targeting of mitochondrial respiratory complex I and activation of AMP-kinase” (BMC Biology, 2016) are described below.

One experiment has as its system 143B cells. Description: Membrane potential measurement by TMRM fluorescence. The experiment is classed as cell-based, human. As to the method: 143B cells were seeded at 5 × 10^5 cells per 10 cm^2 well in DMEM containing 10 % FBS. […] The detached cells from each well were incubated in PBS containing 25 pg/mL tetramethylrhodamine, methyl ester (TMRM) and 20 μg/mL Hoescht stain for 20 min at 37 °C then washed twice and re-suspended in 200 μL PBS. TMRM fluorescence was detected using a NucleoCounter® NC 3000 cytometer with excitation at 530 nm and emission at 575 nm, with the Hoescht stain used to check for consistent cell density between samples.

Experiment [1] deals with mouse heart mitochondrial membranes (complex I) (Mus musculus, UniProt P03888+P03899+Q91WD5+Q9DC70). Briefly: NADH:O2 oxidoreduction by mouse heart mitochondrial membranes. The conditions noted are these: read-out: average % (rate, % of no-inhibitor control). The experiment is classed as biochemical. As to the method: (§1) Complex I and mitochondrial membranes were prepared from Bos taurus (bovine) heart. Intact mitochondria were isolated from rat liver and mouse heart and liver. Membranes were prepared from mouse heart mitochondria by 5 s bursts of sonication at 4 °C and collected by centrifugation (75,000 × g, 1 h).
Sequence of mouse heart mitochondrial membranes (complex I) (P03899 whole entry): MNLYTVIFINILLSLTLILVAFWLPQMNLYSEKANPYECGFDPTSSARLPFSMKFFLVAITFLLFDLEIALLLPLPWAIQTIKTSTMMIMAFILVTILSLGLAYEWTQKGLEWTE
Sequence of mouse heart mitochondrial membranes (complex I) (P03888 whole entry): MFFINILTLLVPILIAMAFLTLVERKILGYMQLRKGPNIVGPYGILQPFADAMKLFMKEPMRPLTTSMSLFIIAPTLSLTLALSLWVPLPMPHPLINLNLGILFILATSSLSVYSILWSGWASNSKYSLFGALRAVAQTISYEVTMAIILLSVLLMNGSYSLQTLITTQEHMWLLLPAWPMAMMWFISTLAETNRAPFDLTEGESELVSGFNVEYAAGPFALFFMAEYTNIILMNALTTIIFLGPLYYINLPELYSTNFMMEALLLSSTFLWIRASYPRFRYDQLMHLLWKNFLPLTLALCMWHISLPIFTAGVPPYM
Sequence of mouse heart mitochondrial membranes (complex I) (Q9DC70 36-224): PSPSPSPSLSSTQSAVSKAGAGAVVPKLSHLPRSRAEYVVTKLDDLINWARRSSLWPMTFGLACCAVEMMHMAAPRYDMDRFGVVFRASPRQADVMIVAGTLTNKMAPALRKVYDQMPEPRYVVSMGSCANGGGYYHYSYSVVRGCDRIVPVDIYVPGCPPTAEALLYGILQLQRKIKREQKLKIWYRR
Sequence of mouse heart mitochondrial membranes (complex I) (Q91WD5 34-463): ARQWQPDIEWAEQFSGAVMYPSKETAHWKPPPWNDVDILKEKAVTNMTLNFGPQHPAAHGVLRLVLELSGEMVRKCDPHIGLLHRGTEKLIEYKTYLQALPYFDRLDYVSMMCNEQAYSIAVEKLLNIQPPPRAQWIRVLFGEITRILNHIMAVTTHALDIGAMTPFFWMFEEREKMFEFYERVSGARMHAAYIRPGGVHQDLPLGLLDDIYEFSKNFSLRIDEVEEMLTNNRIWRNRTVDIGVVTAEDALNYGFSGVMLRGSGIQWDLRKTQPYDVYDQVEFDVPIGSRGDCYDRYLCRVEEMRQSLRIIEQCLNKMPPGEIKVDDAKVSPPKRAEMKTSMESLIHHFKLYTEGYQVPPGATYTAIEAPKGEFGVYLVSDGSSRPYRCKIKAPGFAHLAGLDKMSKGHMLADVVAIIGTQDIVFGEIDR
(§2) Assays were performed at 32 °C in a SpectraMax 96-well plate reader. NADH:decylubiquinone oxidoreduction by complex I at 0.5 μg mL^−1 was measured in 20 mM Tris-HCl (pH 7.2), 0.15 % soy bean asolectin (Avanti Polar Lipids), and 0.15 % 3-((3-cholamidopropyl)dimethylammonium)-1-propanesulfonate (CHAPS, Merck Chemicals Ltd), with 200 μM decylubiquinone and 200 μM NADH, and monitored using ε340–380(NADH) = 4.81 mM^−1 cm^−1 [23]. Catalysis was initiated by addition of NADH and maximal rates determined by linear regression. NADH:O2 oxidoreduction by membranes was measured similarly but using 5 μg mL^−1 membranes in 10 mM Tris-HCl (pH 7.4) and 250 mM sucrose using 200 μM NADH and supplemented with 0.15 mM horse heart cytochrome c (Sigma-Aldrich Ltd.). Succinate:O2 oxidoreduction was measured using 40 μg mL^−1 membranes in 5 mM succinate in 10 mM Tris-HCl (pH 7.4) as described previously. Control experiments included NaCl (to match the ionic strength) or DMSO, as appropriate.
(§3) Experimental values are reported as mean averages ± standard deviation (SD) of technical replicates for large sample sizes and mean averages ± standard error of the mean (SEM) of technical replicates for small sample sizes. Data were analyzed by the unpaired two-tailed Student’s t test. IC50 values were determined using the standard dose-effect relationship (activity (%) = 100 × IC50 / (IC50 + [inhibitor]^m) with the Hill Slope (m) set to unity for purified complex I) and are reported with 95 % confidence intervals.

Experiment [2] has as its target bovine heart mitochondrial membranes (complex I) (Bos taurus, UniProt P03887+P03898+P17694+P42026). Briefly: NADH:O2 oxidoreduction by bovine heart mitochondrial membranes (complexes I-III-IV). It counts as biochemical. The conditions noted are these: bovine heart mitochondrial membranes, read-out: average % (rate, % of no-inhibitor control). As to the method:
as §1, §2, §3

Experiment [3] has as its target isolated bovine heart complex I (Bos taurus, UniProt P03887+P03898+P17694+P42026). Briefly: NADH:decylubiquinone oxidoreduction by isolated complex I. It counts as biochemical. As to conditions: bovine heart purified mitochondrial complex I, read-out: average % (rate, % of no-inhibitor control). As to the method: as §1, §2, §3

Where “and” joins values, the source holds several entries; their conditions need not be identical. Identical values can stand only once.

Sequence of bovine heart mitochondrial membranes (complex I) (P42026 38-216): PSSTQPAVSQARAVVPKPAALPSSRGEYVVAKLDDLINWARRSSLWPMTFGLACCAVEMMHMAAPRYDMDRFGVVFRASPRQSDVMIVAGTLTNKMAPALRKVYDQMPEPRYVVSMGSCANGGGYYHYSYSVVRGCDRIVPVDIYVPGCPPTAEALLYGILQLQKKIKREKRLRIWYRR
Sequence of bovine heart mitochondrial membranes (complex I) (P17694 34-463): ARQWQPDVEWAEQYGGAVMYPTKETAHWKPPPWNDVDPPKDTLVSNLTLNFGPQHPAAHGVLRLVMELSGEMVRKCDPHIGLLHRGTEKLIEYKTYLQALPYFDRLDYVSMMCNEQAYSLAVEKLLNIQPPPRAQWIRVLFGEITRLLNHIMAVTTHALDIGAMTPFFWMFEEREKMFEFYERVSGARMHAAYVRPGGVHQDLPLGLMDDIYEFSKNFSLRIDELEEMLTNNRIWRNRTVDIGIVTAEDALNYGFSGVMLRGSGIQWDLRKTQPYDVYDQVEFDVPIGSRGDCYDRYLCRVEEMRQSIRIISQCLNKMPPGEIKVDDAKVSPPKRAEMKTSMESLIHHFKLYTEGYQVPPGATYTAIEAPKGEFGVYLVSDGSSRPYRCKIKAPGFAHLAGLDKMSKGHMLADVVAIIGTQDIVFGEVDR
Sequence of bovine heart mitochondrial membranes (complex I) (P03887 whole entry): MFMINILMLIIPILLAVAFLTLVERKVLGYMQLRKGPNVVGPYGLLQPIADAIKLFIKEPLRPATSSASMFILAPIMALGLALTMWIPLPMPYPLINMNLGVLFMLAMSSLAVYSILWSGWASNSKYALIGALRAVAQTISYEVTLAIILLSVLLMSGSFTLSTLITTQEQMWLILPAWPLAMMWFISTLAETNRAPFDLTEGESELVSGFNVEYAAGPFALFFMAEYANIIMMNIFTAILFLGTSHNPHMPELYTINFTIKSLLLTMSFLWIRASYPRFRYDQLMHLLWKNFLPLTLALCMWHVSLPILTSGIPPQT
Sequence of bovine heart mitochondrial membranes (complex I) (P03898 whole entry): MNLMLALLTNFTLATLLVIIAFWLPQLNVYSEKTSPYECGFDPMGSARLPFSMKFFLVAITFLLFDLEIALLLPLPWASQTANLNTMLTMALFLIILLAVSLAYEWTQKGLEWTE
Sequence of isolated bovine heart complex I (P42026 38-216): as the sequence (P42026 38-216) above
Sequence of isolated bovine heart complex I (P17694 34-463): as the sequence (P17694 34-463) above
Sequence of isolated bovine heart complex I (P03898 whole entry): as the sequence (P03898 whole entry) above
Sequence of isolated bovine heart complex I (P03887 whole entry): as the sequence (P03887 whole entry) above

Take `N#CC(C#N)=NNc1ccc(OC(F)(F)F)cc1` [FCCP, carbonyl cyanide-4-(trifluoromethoxy)phenylhydrazone]: the “TMRM fluorescence, % of the control value” in the experiment with 143B cells (after 6.5 h, phenformin at IC50/10 (34 μM), FCCP at 1 μM, n = 3) is reported as 13.43 ± 1.7%. Moreover, the “mean-y (TMRM)” value in the experiment with 143B cells (individual replicates, phenformin 6.5 hours) was 1862.7 and 2673.4 and 1873.5. Besides, in the experiment on 143B cells (n 3, phenformin 6.5 hours), the TMRM average was 2136.53 and the “TMRM average, % control” value was 13.43 % control.

`N=C(N)N=C(N)Nc1ccccc1` [compound2]: the results for the remaining activity at 25 µM in experiment [1] (inhibitor 0.025 mM) and in experiment [2] (inhibitor 0.025 mM) were 100% and 91.2%, respectively. The remaining activity at 50 µM in experiment [1] (inhibitor 0.05 mM) came out at 91.6%; in experiment [2] (inhibitor 0.05 mM), 80.9%; in experiment [3] (inhibitor 0.05 mM) it was 89%. Moreover, the remaining activity at 130 µM in experiment [1] (inhibitor 0.13 mM) came out at 95.5%. Also, the results for the remaining activity at 250 µM in experiment [1] (inhibitor 0.25 mM) and in experiment [2] (inhibitor 0.25 mM) were 81.9% and 59.3%, respectively. Also, the remaining activity at 500 µM in experiment [1] (inhibitor 0.50 mM) was 59.6%; in experiment [2] (inhibitor 0.50 mM) it was 43.6%. Further, the remaining activity at 1250 µM in experiment [1] (inhibitor 1.25 mM) turned out to be 40.4%; in experiment [2] (inhibitor 1.25 mM), 32%. The remaining activity at 2500 µM in experiment [1] (inhibitor 2.50 mM) worked out at 27%; in experiment [2] (inhibitor 2.50 mM), 21.2%; in experiment [3] (inhibitor 2.50 mM), 15.2%. Besides, in experiment [2] (inhibitor 0.12 mM), the remaining activity at 120 µM stood at 74.7%. Also, the remaining activity at 100 µM in experiment [3] (inhibitor 0.10 mM) is 82.1%. Besides, the remaining activity at 200 µM in experiment [3] (inhibitor 0.20 mM) was determined as 70%. In addition, in experiment [3] (inhibitor 0.40 mM), the remaining activity at 400 µM was determined as 50.6%. Also, in experiment [3] (inhibitor 1.00 mM), the remaining activity at 1000 µM stood at 33.6%. Further, in experiment [3] (inhibitor 2.00 mM), the remaining activity at 2000 µM is 17.4%.
